The source of these data is US20240336617A1, “Substituted Bimane Compounds and Methods of Use Thereof” (THE TRUSTEES OF THE UNIVERSITY OF PENNSYLVANIA, priority 2023, published 2024).

Data set [1] in a line: Fluorescence (emission) measurements.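 As to all read-outs here: fluorescence emission spectra recorded on a spectrofluorometer, with each compound excited at its own absorption maximum.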 Type of data set: physicochemical. Particulars: for maximum emission wavelength (λem): 50:50 ACN/PBS, excitation at λabs; for Emission λem: Table S12.
Procedure: The fluorescence spectrum of each derivative (150 μL) was measured on a Photon Technology International (PTI) QuantaMaster™ 40 fluorescence spectrometer by excitation at the maximum absorption wavelength for each compound.
The fluorescence spectrum of each derivative (150 μL) was measured on a Photon Technology International (PTJ) QuantaMaster™ 40 fluorescence spectrometer by excitation at the maximum absorption wavelength for each compound.
The nature of data set [2]: Absorbance measurements (UV-Vis). The settings on record: for Absorbance Wavelength: ACN:PBS buffer (50:50 v/v); for λabs: ACN/PBS.
Procedure: Samples were individually diluted to the final concentration of 25 μM (500 μL) using 50:50 acetonitrile in phosphate buffered saline (ACN/PBS). The absorbance spectrum of each derivative (150 μL) was measured on a Thermo Scientific Genesys 150 UV-Vis spectrometer, using 50:50 ACN/PBS as a blank.
Data set [3] can be described thus: Fluorescent quantum yield (QY) measurements. The class given is physicochemical. Particulars: for Fluorescence QY: ACN/PBS buffer (1:1 v/v); for Fluorescence quantum yield: in ACN. The method, then:
For each QY measurement, the incident excitation light spectrum was collected with 1 mL of solvent. […] Using the JASCO Quantum Yield Software, the dye QY was calculated by dividing the dye fluorescence intensity by the difference in incident light intensity in the presence and absence of dye. The minimum excitation wavelength for a full excitation incident spectrum using this setup is 360 nm.
Fluorescent quantum yield (QY) measurements. For each QY measurement, the incident excitation light spectrum was collected with 1 mL of solvent. After measuring the incident light intensity, dye (3 and 5a-5k) was added to the solvent from a concentrated stock solution to a final concentration of […] and the new spectrum (fluorescence intensity and new incident light intensity) was collected. Using the JASCO Quantum Yield Software, the dye QY was calculated by dividing the dye fluorescence intensity by the difference in incident light intensity in the presence and absence of dye. The minimum excitation wavelength for a full excitation incident spectrum using this setup is 360 nm.

Data set [4] can be described thus: Molar absorptivity determination.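 Also: molar absorptivity derived from UV-Vis absorbance spectra recorded for each derivative on a spectrometer.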 The class given is physicochemical.
Procedure: The absorbance spectrum of each derivative (150 μL) was measured on a Thermo Scientific Genesys 150 UV-Vis spectrometer, using 50:50 ACN/PBS as a blank.
Molar absorptivity determination. […] The absorbance spectrum of each derivative (150 μL) was measured on a Thermo Scientific Genesys 150 UV-Vis spectrometer, using 50:50 ACN/PBS as a blank.
Data set [5] can be described thus: pH measurements (absorption and emission). Particulars: pH 2-11. Type of data set: physicochemical. The method, then:
10 mM stock solutions of 7h, 7j, and 7k in DMSO were individually diluted into ACN/PBS buffer (50:50 v/v) having different pH ranging from pH 2-11 with 25 μM (500 μL) of final concentration. For pH screening of 7h and 7j, PBS buffer solutions were prepared, then adjusted the pH 2, 4, and 7 by adding 6 M hydrochloric acid, pH 9 and 11 by adding 5 M sodium hydroxide. For pH screening of 7k, pH 4.4 and 7.4 were prepared by citric acid/phosphate buffer. Then, the absorption and fluorescence spectra were recorded by using Thermo Scientific Genesys 150 UV-Vis spectrometer, followed by PTI QuantaMaster™ 40 fluorescence spectrometer by excitation with maximum absorption wavelength.
pH measurements. 10 mM stock solutions of 5h and 5j in DMSO were individually diluted into ACN/PBS buffer (50:50 v/v) having different pH ranging from pH 2-11 with 25 µM (500 μL) of final concentration. For pH screening of 5h and 5j, PBS buffer solutions were prepared, then adjusted the pH 2, 4, and 7 by adding 6 M hydrochloric acid, pH 9 and 11 by adding 5 M sodium hydroxide. Then, we have recorded the absorption and fluorescence spectra by using Thermo Scientific Genesys 150 UV-Vis spectrometer, followed by PTI QuantaMaster™ 40 fluorescence spectrometer by excitation with maximum absorption wavelength.

A short description of data set [6]: Solvatochromic measurements. The class given is physicochemical. The settings on record: organic solvents of different polarity. The method, then: The remaining 850 μL solution was used to obtain fluorescence images under a handheld 365 nm UV lamp.
Solvatochromic measurements. […] The remaining 850 μL solution was used to obtain fluorescence images under a handheld 365 nm UV lamp.

A short description of data set [7]: Fluorescence lifetime measurements (TCSPC). The class given is physicochemical. The settings on record: for Fluorescence Lifetime: ACN/PBS buffer (1:1 v/v); for Lifetime: ACN/PBS buffer (50:50 v/v), excitation 340 nm. The method, then:
Time correlated single photon counting (TCSPC) measurements of fluorescence lifetime decays for 100 μM solutions of dyes (6, 7c, 7e, 7f, and 7g) in ACN/PBS buffer (50:50 v/v) were collected with the PTI Quantamaster™ 40 using a pulsed LED with a maximum emission at 340 nm. Fluorescence emission was collected at the indicated wavelength for each dye with 20 nm slit widths. The instrument response function (IRF) was collected under identical conditions. Data analysis was performed with FluoFit software (PicoQuant GmbH; Berlin, Germany) using an exponential decay model.
Fluorescence lifetime measurements. Time correlated single photon counting (TCSPC) measurements of fluorescence lifetime decays for 100 μM solutions of dyes (3 and 5c-f) in ACN/PBS buffer (50:50 v/v) were collected with the PTI Quantamaster™ 40 using a pulsed LED with a maximum emission at 340 nm. Fluorescence emission was collected at the indicated wavelength for each dye with 20 nm slit widths. The instrument response function ([…]) was collected under identical conditions. Data analysis was performed with FluoFit software (PicoQuant GmbH; Berlin, Germany) using an exponential decay model. […] FIG. 64D Fluorescence spectra of 5i-5k. […] Fluorescence spectra were measured at their maximum absorption wavelength. FIGS. 66A-66K show representative QY acquisitions of 3 and 5a-f, 5h-k in ACN/PBS buffer (50:50). All had consistent excitation (360 nm) and spectral collection (350-800 nm) parameters. Final concentration of the probe is 500 μM. Black line indicates incident light and blue line indicates sample spectrum. […] All had consistent excitation (360 nm, slit width 10 nm) and spectral collection (350-800 nm) parameters. Final concentration of the probe is 500 µM. Black line indicates incident light and blue line indicates sample spectrum. FIG. 68: Effect of pH on absorption and emission of 5h and 5j. […] For pH screening of 5h and 5j, PBS buffer solutions were prepared, then adjusted the pH 2, 4, and 7 by adding 6 M hydrochloric acid, pH 9 and 11 by adding 5 M sodium hydroxide. Emission spectra were measured by the excitation wavelength 354 nm for 5h and 385 nm for 5j. […] Lifetime measurements with exponential fits shown at left and residuals after fitting shown at right.

Setting [8] is: 25 μM in ACN/PBS buffer (1:1 v/v), pH 7.4.
Where [9] appears, read: ACN/PBS buffer (1:1 v/v), pH 7.4.
Setting [10] is: in ACN, at maximum absorption wavelength.

On to `Cc1c(C)n2c(/C=C/c3ccc(O)cc3)c(C)c(=O)n2c1=O` [Compound 7h, (E)-3-(4-hydroxystyryl)-2,5,6-trimethyl-1H,7H-pyrazolo[1,2-a]pyrazole-1,7-dione], for which the “Emission λmax” value in data set [1] (setting [8]) was 506 nm. Moreover, in data set [1], the “maximum emission wavelength (λem)” value came to 505 nm. Moreover, the Stokes shift worked out at 152 nm in data set [1] (ACN/PBS buffer (1:1 v/v)) and 144 nm in data set [1] (in ACN). The “Absorbance λmax” value was found to be 342 nm in data set [2] (25 μM in ACN) and 354 nm in data set [2] (setting [8]). Also, the “Absorbance Wavelength” value in data set [2] (Table 11) came to 348 nm; in data set [2] (Table S14), 354 nm. Further, the “Fluorescence QY” value in data set [3] is listed as 2.3%. For the same molecule, the Fluorescence quantum yield in data set [3] and in data set [3] (Table S12) was 3.1% each time. In addition, the entries for the “Molar Absorptivity (ε)” value in data set [4] (setting [9]) and in data set [4] (setting [10]) were 31514 M⁻¹ cm⁻¹ and 29910 M⁻¹ cm⁻¹, respectively. Further, the “pH effects on absorption and emission” value in data set [5] was “red-shifted absorption at pH 11 with a reduced QY, but no shift in emission”.
On to `Cc1c(C)n2c(/C=C/c3ccc(C#N)cc3)c(C)c(=O)n2c1=O` [Compound 7b, (E)-4-(2-(2,5,6-trimethyl-1,7-dioxo-1H,7H-pyrazolo[1,2-a]pyrazol-3-yl)vinyl)benzonitrile], for which the figures for the “Emission λmax” value in data set [1] (25 μM in ACN) and in data set [1] (setting [8]) were 522 nm and 520 nm, respectively. In addition, in data set [1] (25 μM in ACN), the “Emission λem” value is 522 nm. The results for the Stokes shift in data set [1] (ACN/PBS buffer (1:1 v/v)) and in data set [1] (in ACN) were 200 nm and 206 nm, respectively. The figures for the “Absorbance λmax” value in data set [2] (25 μM in ACN) and in data set [2] (setting [8]) were 316 nm and 320 nm, respectively. Besides, in data set [2], the λabs worked out at 320 nm. Further, the “Absorbance Wavelength” value in data set [2] (Table 11) and in data set [2] (Table S14) was 320 nm each time. For the same molecule, the “solvatochromism / environmental sensitivity” value in data set [6] is “no significant solvatochromism”. Also, in data set [3], the “Fluorescence QY” value is listed as 0.8%. The Fluorescence quantum yield in data set [3] and in data set [3] (Table S12) was 1.4% throughout. The results for the “Molar Absorptivity (ε)” value in data set [4] (setting [9]) and in data set [4] (setting [10]) were 38995 M⁻¹ cm⁻¹ and 43238 M⁻¹ cm⁻¹, respectively.
In the case of `Cc1c(C)n2c(/C=C/c3ccccc3)c(C)c(=O)n2c1=O` [Compound 7e, (E)-2,3,6-trimethyl-5-styryl-1H,7H-pyrazolo[1,2-a]pyrazole-1,7-dione], in data set [7], the “Fluorescence Lifetime” value came to 1.02 ns. Further, the Lifetime in data set [7] (Table 4) and in data set [7] (Table S13) was 1.02 ± 0.004 ns in each case. For the same molecule, the “Emission λmax” value in data set [1] (setting [8]) was 503 nm. The results for the Stokes shift in data set [1] (ACN/PBS buffer (1:1 v/v)) and in data set [1] (in ACN) were 182 nm and 176 nm, respectively. In addition, the “Absorbance λmax” value in data set [2] (25 μM in ACN) is on record as 316 nm; in data set [2] (setting [8]), 321 nm. This molecule displayed a λabs in data set [2] of 321 nm. Besides, the “Absorbance Wavelength” value in data set [2] (Table 11) and in data set [2] (Table S14) was 321 nm throughout. In addition, the “solvatochromism / environmental sensitivity” value in data set [6] was “no significant solvatochromism”. Further, in data set [3], the “Fluorescence QY” value was 2.5%. For the same molecule, the Fluorescence quantum yield in data set [3] and in data set [3] (Table S12) was 3.1% in each case. Also, the “Molar Absorptivity (ε)” value came to 23959 M⁻¹ cm⁻¹ in data set [4] (setting [9]) and 32724 M⁻¹ cm⁻¹ in data set [4] (setting [10]).
Turning to `Cc1c(C)n2c(/C=C/c3ccc(F)cc3)c(C)c(=O)n2c1=O` [Compound 7c, (E)-3-(4-fluorostyryl)-2,5,6-trimethyl-1H,7H-pyrazolo[1,2-a]pyrazole-1,7-dione], the “Fluorescence Lifetime” value in data set [7] was 1.07 ns. The Lifetime in data set [7] (Table 4) and in data set [7] (Table S13) was 1.07 ± 0.003 ns in each case. Besides, in data set [1] (setting [8]), the “Emission λmax” value was found to be 502 nm. Besides, the Stokes shift stood at 181 nm in data set [1] (ACN/PBS buffer (1:1 v/v)) and 177 nm in data set [1] (in ACN). Also, the “Absorbance λmax” value in data set [2] (25 μM in ACN) was determined as 315 nm; in data set [2] (setting [8]), 321 nm. In addition, the “Absorbance Wavelength” value in data set [2] (Table 11) and in data set [2] (Table S14) was 321 nm each time. For the same molecule, the “Fluorescence QY” value in data set [3] worked out at 2.5%. In addition, the Fluorescence quantum yield in data set [3] and in data set [3] (Table S12) was 2.8% each time. The entries for the “Molar Absorptivity (ε)” value in data set [4] (setting [9]) and in data set [4] (setting [10]) were 23796 M⁻¹ cm⁻¹ and 28940 M⁻¹ cm⁻¹, respectively.
`COP(=O)(Cc1c(C)c(=O)n2c(=O)c(C)c(C)n12)OC` [Compound 6, dimethyl ((2,5,6-trimethyl-1,7-dioxo-1H,7H-pyrazolo[1,2-a]pyrazol-3-yl)methyl)phosphonate] had a fluorescent lifetime in data set [7] (ACN/PBS) of 2.32 ns. For the same molecule, the “Fluorescence Lifetime” value in data set [7] was determined as 2.32 ns. For the same molecule, the Lifetime in data set [7] (Table 4) and in data set [7] (Table S13) was 2.32 ± 0.01 ns in each case. Moreover, the “Emission λmax” value in data set [1] (25 μM in ACN) is on record as 432 nm; in data set [1] (setting [8]) it was 464 nm. Moreover, the “Emission λem” value in data set [1] (25 μM in ACN) is given as 432 nm. Moreover, in data set [1], the “maximum emission wavelength (λem)” value is 464 nm. For the same molecule, the Stokes shift in data set [1] (ACN/PBS buffer (1:1 v/v)) worked out at 80 nm; in data set [1] (in ACN), 57 nm. The results for the “Absorbance λmax” value in data set [2] (25 μM in ACN) and in data set [2] (setting [8]) were 375 nm and 384 nm, respectively. In data set [6], the “solvatochromism / environmental sensitivity” value is on record as “no significant environmental sensitivity”. The “Fluorescence QY” value in data set [3] stood at 64.6%. Also, the Fluorescence quantum yield in data set [3] and in data set [3] (Table S12) was 77.7% throughout. Besides, the “fluorescence quantum yield (QY)” value in data set [3] (in ACN/PBS) is 64.6%. For the same molecule, the “Molar Absorptivity (ε)” value in data set [4] (setting [9]) was found to be 7902 M⁻¹ cm⁻¹; in data set [4] (setting [10]) it was 6121 M⁻¹ cm⁻¹.
For `Cc1ccc(/C=C/c2c(C)c(=O)n3c(=O)c(C)c(C)n23)cc1` [Compound 7f, (E)-2,3,6-trimethyl-5-(4-methylstyryl)-1H,7H-pyrazolo[1,2-a]pyrazole-1,7-dione], the “Fluorescence Lifetime” value in data set [7] is given as 1.28 ns. Moreover, the Lifetime in data set [7] (Table 4) and in data set [7] (Table S13) was 1.28 ± 0.004 ns throughout. In addition, the “Emission λmax” value in data set [1] (setting [8]) is reported as 503 nm. In addition, the Stokes shift in data set [1] (ACN/PBS buffer (1:1 v/v)) is recorded as 171 nm; in data set [1] (in ACN) it was 165 nm. The “Absorbance λmax” value is listed as 325 nm in data set [2] (25 μM in ACN) and 332 nm in data set [2] (setting [8]). Also, the “Absorbance Wavelength” value in data set [2] (Table 11) and in data set [2] (Table S14) was 332 nm throughout. In addition, the “Fluorescence QY” value in data set [3] turned out to be 3.0%. The Fluorescence quantum yield in data set [3] and in data set [3] (Table S12) was 3.4% throughout. The “Molar Absorptivity (ε)” value in data set [4] (setting [9]) amounted to 21164 M⁻¹ cm⁻¹; in data set [4] (setting [10]) it was 24426 M⁻¹ cm⁻¹.
